Patent publication US6914045B2, “Glycopeptide antibiotics” (Wyeth Holdings Corporation, priority 2001, dated 2005)

Tests used:
Assay in all cases: in vitro antibacterial evaluation, MIC by broth dilution
Type in all cases: cell-based
Escherichia coli = conditions: 18 hours at 35° C.
Streptococcus sp. = conditions: broth dilution, 18 hours at 35° C.
Procedure, shortened: (§1)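 Following National Committee for Clinical Laboratory Standards recommendations (M7-A2), susceptibility was measured by dilution in Muller-Hinton II […]. Bacteria were seeded at 5×10^5 CFU/mL against compound concentrations from 64 down to 0.06 μg/mL.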

Enterococcus sp. = conditions: broth dilution, 18 hours at 35° C.
Procedure, shortened: as §1

Staphylococcus sp. = conditions: broth dilution, 18 hours at 35° C.; for MIC Staphylococcus aureus (GC 1131): strain GC 1131
Procedure, shortened: as §1

CC(c1ccccc1)C1NC(=O)CNC(=O)C(CO)NC(=O)C(C(O)C2CNC(=N)N2C2OC(CO)C(O)C(O)C2O)NC(=O)C(C(O)C2CNC(=N)N2)NC(=O)C(Cc2ccc(OC3OC(CO)C(OC4OC5COC(c6ccc(C(=O)c7cc(I)c(I)c(I)c7)cc6)OC5C(O)C4O)C(O)C3O)cc2)NC1=O (centres unmarked) [Example 187]
0.5 µg/mL: MIC Streptococcus pyogenes (GC 4563) (Streptococcus sp.) | MIC Streptococcus pyogenes (GC 4563) (Streptococcus sp.; inoculum 5×10^5 CFU/mL, strain GC 4563)
<0.12 µg/mL: MIC Streptococcus agalactiae (GC 4564) (Streptococcus sp.) | MIC Streptococcus pneumoniae (ATCC 6301) (Streptococcus sp.) | MIC Streptococcus pneumoniae (GC 1894) (Streptococcus sp.) | MIC Streptococcus pneumoniae (GC 4565) (Streptococcus sp.) | MIC Streptococcus pneumoniae (ATCC 6301) (Streptococcus sp.; inoculum 5×10^5 CFU/mL, strain ATCC 6301) | MIC Streptococcus pneumoniae (GC 1894) (Streptococcus sp.; inoculum 5×10^5 CFU/mL, strain GC 1894) | MIC Streptococcus agalactiae (GC 4564) (Streptococcus sp.; inoculum 5×10^5 CFU/mL, strain GC 4564) | MIC Streptococcus pneumoniae (GC 4565) (Streptococcus sp.; inoculum 5×10^5 CFU/mL, strain GC 4565)
>128 µg/mL: MIC Escherichia coli (ATCC 25922) (Escherichia coli) | MIC Escherichia coli (GC 4559) (Escherichia coli)
16 µg/mL: MIC Enterococcus avium (GC 4558) (Enterococcus sp.) | MIC Enterococcus faecalis (GC 2691) (Enterococcus sp.) | MIC Enterococcus faecalis (GC 6189) (Enterococcus sp.) | MIC Enterococcus faecium (GC 2243) (Enterococcus sp.) | MIC Enterococcus faecium (GC 4557) (Enterococcus sp.) | MIC Enterococcus faecium (GC 2243) (Enterococcus sp.; inoculum 5×10^5 CFU/mL, strain GC 2243) | MIC Enterococcus faecalis (GC 2691) (Enterococcus sp.; inoculum 5×10^5 CFU/mL, strain GC 2691) | MIC Enterococcus faecium (GC 4557) (Enterococcus sp.; inoculum 5×10^5 CFU/mL, strain GC 4557) | MIC Enterococcus avium (GC 4558) (Enterococcus sp.; inoculum 5×10^5 CFU/mL, strain GC 4558) | MIC Enterococcus faecalis (GC 6189) (Enterococcus sp.; inoculum 5×10^5 CFU/mL, strain GC 6189) | MIC Coagulase Negative Staphylococcus (GC 4548) (Staphylococcus sp.; strain GC 4548)
128 µg/mL: MIC Escherichia coli (GC 4560) (Escherichia coli) | MIC Enterococcus faecalis (GC 3059) (Enterococcus sp.) | MIC Enterococcus faecium (GC 4556) (Enterococcus sp.) | MIC Enterococcus faecalis (GC 3059) (Enterococcus sp.; inoculum 5×10^5 CFU/mL, strain GC 3059) | MIC Enterococcus faecium (GC 4556) (Enterococcus sp.; inoculum 5×10^5 CFU/mL, strain GC 4556) | MIC Staphylococcus haemolyticus (GC 4546) (Staphylococcus sp.; strain GC 4546) | MIC Coagulase Negative Staphylococcus (GC 4547) (Staphylococcus sp.; strain GC 4547)
64 µg/mL: MIC Enterococcus faecalis (ATCC 29212) (Enterococcus sp.) | MIC Enterococcus faecalis (GC 2242) (Enterococcus sp.) | MIC Enterococcus faecalis (GC 4552) (Enterococcus sp.) | MIC Enterococcus faecalis (GC 4554) (Enterococcus sp.) | MIC Enterococcus faecalis (ATCC 29212) (Enterococcus sp.; inoculum 5×10^5 CFU/mL, strain ATCC 29212) | MIC Enterococcus faecalis (GC 2242) (Enterococcus sp.; inoculum 5×10^5 CFU/mL, strain GC 2242) | MIC Enterococcus faecalis (GC 4552) (Enterococcus sp.; inoculum 5×10^5 CFU/mL, strain GC 4552) | MIC Enterococcus faecalis (GC 4554) (Enterococcus sp.; inoculum 5×10^5 CFU/mL, strain GC 4554) | MIC Staphylococcus aureus (GC 1131) (Staphylococcus sp.; inoculum 5×10^5 CFU/mL) | MIC Staphylococcus aureus (ATCC 29213) (Staphylococcus sp.; strain ATCC 29213) | MIC Staphylococcus aureus (GC 1131) (Staphylococcus sp.) | MIC Staphylococcus aureus (GC 3051) (Staphylococcus sp.; strain GC 3051) | MIC Staphylococcus aureus (GC 4541) (Staphylococcus sp.; strain GC 4541) | MIC Staphylococcus aureus (GC 4542) (Staphylococcus sp.; strain GC 4542) | MIC Staphylococcus aureus-SMITH (GC 4543) (Staphylococcus sp.; strain GC 4543) | MIC Staphylococcus aureus (GC 4544) (Staphylococcus sp.; strain GC 4544) | MIC Staphylococcus aureus (GC 4545) (Staphylococcus sp.; strain GC 4545) | MIC Coagulase Negative Staphylococcus (GC 4549) (Staphylococcus sp.; strain GC 4549)
32 µg/mL: MIC Enterococcus faecalis (GC 4553) (Enterococcus sp.) | MIC Enterococcus faecalis (GC 4553) (Enterococcus sp.; inoculum 5×10^5 CFU/mL, strain GC 4553) | MIC Staphylococcus aureus (GC 3053) (Staphylococcus sp.; strain GC 3053) | MIC Coagulase Negative Staphylococcus (GC 4551) (Staphylococcus sp.; strain GC 4551) | MIC Coagulase Negative Staphylococcus (GC 6257) (Staphylococcus sp.; strain GC 6257)
